Patent US10793526B2, “Hydantoin derivative compounds, methods of use and methods of treatment” (University of South Florida, priority 2016, dated 2020)
Read-outs that look alike come from different tables or passages of the source.

How the values were obtained:
[1] = system: methicillin-resistant S. epidermidis (MRSE, RP62A); experiment: Minimum inhibitory concentration (MIC) assay, MRSE; type: cell-based, Staphylococcus epidermidis; conditions: Gram positive, 16 h incubation; for MIC: Staphylococcus epidermidis, MRSE, read-out: MIC (μg/mL) MRSE
Procedure: (§1) Minimum inhibitory concentrations (MICs) assay.^2
(§2) All compounds were tested against six different bacteria strains: methicillin-resistant S. aureus (MRSA, ATCC 33591), E. coli (ATCC 25922), methicillin-resistant S. epidermidis (MRSE, RP62A), K. pneumoniae (ATCC 13383), vancomycin-resistant Enterococcus faecalis (VREF, ATCC 700802), P. aeruginosa (ATCC 27853). One colony of each bacteria was inoculated in 4 mL TSB buffer at 37° C. overnight, which was then diluted 100 times, and the bacteria were allowed to grow to the mid-logarithmic phase. 50 μL hydantoin compounds in 2-fold serial dilution of TSB were added in the 96-well plate, then 50 μL diluted bacterial in TSB medium (1×10^6 CFU/mL) was added to each well. After 16 h of incubation at 37° C., the absorption at 600 nm wavelength on a Biotek Synergy HT microtiter plate reader was recorded. Minimum inhibitory concentrations were determined as the lowest concentrations that inhibited bacteria growth completely.

[2] = system: methicillin-resistant S. aureus (MRSA, ATCC 33591); experiment: Minimum inhibitory concentration (MIC) assay, MRSA; type: cell-based, Staphylococcus aureus; conditions: for MIC: Staphylococcus aureus
Procedure: as §1, §2

[3] = system: E. coli (ATCC 25922); experiment: Minimum inhibitory concentration (MIC) assay, E. coli; type: cell-based, Escherichia coli; conditions: 16 h incubation; for MIC: Escherichia coli, ATCC25922, Gram negative, read-out: MIC (μg/mL) E. coli; for MIC (μg/mL) E. coli: Gram negative
Procedure: as §1, §2

[4] = system: P. aeruginosa (ATCC 27853); experiment: Minimum inhibitory concentration (MIC) assay, P. aeruginosa; type: cell-based, Pseudomonas aeruginosa; conditions: Gram negative, ATCC 27853, 16 h incubation; for MIC: Pseudomonas aeruginosa, ATCC27853, read-out: MIC (μg/mL) P.A.
Procedure: as §1, §2

[5] = system: vancomycin-resistant Enterococcus faecalis (VREF, ATCC 700802); experiment: Minimum inhibitory concentration (MIC) assay, VREF; type: cell-based; conditions: 16 h incubation; for MIC: Enterococcus faecalis, ATCC700802, Gram positive, read-out: MIC (μg/mL) VREF; for MIC (μg/mL) VREF: Gram positive
Procedure: as §1, §2

[6] = system: red blood cells (RBCs) of mice; experiment: Hemolytic assay; type: cell-based
Procedure: Fresh red blood cells (RBCs) of mice were washed with 1×PBS buffer and centrifuged 10 min at 3500 rpm for 3 times until the supernatant was clear, then RBCs were diluted into 5% v/v suspension in 1×PBS. 50 μL compounds in PBS were 2-fold serially diluted in a 96-well plate, and incubated with 50 μL RBCs suspension for 1 h at 37° C. The mixture was then centrifuged for 10 min at 3500 rpm. Subsequently, 30 μL of the supernatant was added to 100 μL PBS, then the absorbance of mixture was read on a Biotek Synergy HT plate reader at 540 nm. The hemolytic activity was calculated by the formula % hemolysis=(Abssample−AbsPBS)/(AbsTriton−AbsPBS)×100%. 1% Triton X-100 were used as the positive control and 1×PBS buffer was used as the negative control.

[7] = system: K. pneumoniae (ATCC 13383); experiment: Minimum inhibitory concentration (MIC) assay, K. pneumoniae; type: cell-based, Klebsiella pneumoniae; conditions: 16 h incubation; for MIC: Klebsiella pneumoniae, ATCC13383, Gram negative, read-out: MIC (μg/mL) K.P.; for MIC (μg/mL) K.P.: Gram negative
Procedure: as §1, §2

[8] = system: MRSA-induced lung inflammation; experiment: Rat model of MRSA-induced pneumonia, pathological analysis (H&E); type: in vivo; conditions: 10 mg/kg i.v.
Procedure: The rat model of MRSA-induced pneumonia.^4, 5
The protocol of animal studies was approved by the institutional committee for animal care of Nanjing University, and the experiments were conducted following the regulation of the National Ministry of Health of China. In Brief, male Wistar rats (6-8 weeks, ˜200 g in average weight) were subjected to fast for 12 h. Next, rats were anesthetized by intraperitoneal administration of 0.35 g/kg of chloral hydrate. To induce MRSA pneumonia, the trachea of rats were exposed, to which 100 μL PBS containing 2×10^6 CFU/mL MRSA in PBS was slowly injected. The rats were retained upright for 1 min, and the cut was sealed. The MRSA infection was allowed to develop for 24 h.
The hydantoin compound 22 or vancomycin were used as antibiotics in the study. In brief, a dose of 10 mg/kg of the drug was injected to the tested rats intravenously. On the day of 3 and 5, rats were sacrificed, and lung sections were stained with hematoxylin and eosin (H&E), and their morphology was investigated under a light microscope at 100× magnification. The existence (indicated by the infiltration of neutrophils) and the extent of possible inflammatory response (indicated by the integrity of the alveolar structure and endothelium cilium) were recorded from at least five randomly picked sections by an experienced physician.

[9] = system: panel of Gram-positive and Gram-negative bacteria; experiment: Antimicrobial activity against the whole panel of bacteria; type: cell-based; conditions: for antimicrobial activity across the tested bacterial strains: all tested strains; for antibacterial activity of compounds with HPLC RT values less than 26 min: statement relating activity to retention time
Procedure: as §1, §2

[10] = hemolytic activity, mouse RBCs, 1 h at 37° C.
[11] = Gram positive, ATCC 33591, 16 h incubation
[12] = Gram positive, ATCC 33591, 16 h incubation, read-out: MIC (μg/mL) MRSA

SMILES | MIC [1] | MIC ([2]; Table 2, read-out: MIC of MRSA) | MIC [3] | MIC [4] | MIC [5] | MIC [7] | MIC (μg/mL) MRSE [1] | MIC (μg/mL) MRSA [2, 11] | MIC of MRSA ([2]; Table 2) | MIC (μg/mL) E. coli [3] | MIC (μg/mL) P.A. [4] | MIC (μg/mL) VREF [5] | MIC (μg/mL) K.P. [7] | MIC [2, 12] | HC50 [6, 10] | lung inflammation (H&E staining), day not given [8] | antimicrobial activity across the tested bacterial strains [9] | HC50 [6] | antibacterial activity of compounds with HPLC RT values less than 26 min [9]
CN[C@H](CC(C)C)C(=O)N[C@H]1C(=O)N[C@@H](CC(N)=O)C(=O)N[C@H]2C(=O)N[C@H]3C(=O)N[C@H](C(=O)N[C@H](C(=O)O)c4cc(O)cc(O)c4-c4cc3ccc4O)[C@H](O)c3ccc(c(Cl)c3)Oc3cc2cc(c3O[C@@H]2O[C@H](CO)[C@@H](O)[C@H](O)[C@H]2O[C@H]2C[C@](C)(N)[C@H](O)[C@H](C)O2)Oc2ccc(cc2Cl)[C@H]1O [vancomycin, reference compound] | – | – | – | – | – | – | – | – | – | – | – | – | – | – | – | alleviated condition | – | – | –
CCCCCCCCCCCCCC(=O)N[C@@H](CCCCN)CN1CC(=O)N(CC)C1=O [Compound 3, (S)—N-(6-amino-1-(3-ethyl-2,4-dioxoimidazolidin-1-yl)hexan-2-yl)tetradecanamide] | 6.25 µg/mL | – | 3.12 µg/mL | 12.5 µg/mL | 6.25 µg/mL | 6.25 µg/mL | – | – | – | – | 12.5 µg/mL | – | – | 6.25 µg/mL | 90 µg/mL | – | comparable activity to nitrofurantoin against most strains | – | –
CCCCCCCCCCCC(=O)N[C@@H](CCCCN)CN1CC(=O)N(CC)C1=O [Compound 2, (S)—N-(6-amino-1-(3-ethyl-2,4-dioxoimidazolidin-1-yl)hexan-2-yl)dodecanamide] | > 50 µg/mL | – | 12.5 µg/mL | > 50 µg/mL | > 50 µg/mL | > 50 µg/mL | – | – | – | – | – | – | – | > 50 µg/mL | – | – | – | – | no apparent antibacterial activity
CCCCCCCCCCCC(=O)N[C@@H](CCCCN)CN1CC(=O)N(CCCC)C1=O [Compound 6, (S)—N-(6-amino-1-(3-butyl-2,4-dioxoimidazolidin-1-yl)hexan-2-yl)dodecanamide] | 25 µg/mL | – | 6.25 µg/mL | 25 µg/mL | 25 µg/mL | 12.5 µg/mL | – | – | – | – | – | – | – | 12.5 µg/mL | 80 µg/mL | – | – | – | no apparent antibacterial activity

Second part, led by results:

MIC [1] | MIC ([2]; Table 2, read-out: MIC of MRSA) | MIC [3] | MIC [4] | MIC [5] | MIC [7] | MIC (μg/mL) MRSE [1] | MIC (μg/mL) MRSA [2, 11] | MIC of MRSA ([2]; Table 2) | MIC (μg/mL) E. coli [3] | MIC (μg/mL) P.A. [4] | MIC (μg/mL) VREF [5] | MIC (μg/mL) K.P. [7] | MIC [2, 12] | SMILES | HC50 [6, 10] | lung inflammation (H&E staining), day not given [8] | antimicrobial activity across the tested bacterial strains [9] | HC50 [6] | antibacterial activity of compounds with HPLC RT values less than 26 min [9]
6.25 µg/mL | 6.25 µg/mL | 6.25 µg/mL | 6.25 µg/mL | 12.5 µg/mL | 6.25 µg/mL | – | – | – | – | – | – | – | – | CCCCCCCCCC(=O)N[C@@H](CCCCN)CN1CC(=O)N(c2cccc(Cl)c2)C1=O [Compound 21, (S)—N-(6-amino-1-(3-(3-chlorophenyl)-2,4-dioxoimidazolidin-1-yl)hexan-2-yl)decanamide] | 100 µg/mL | – | – | – | –
– | – | – | – | – | – | 6.25 µg/mL | 6.25 µg/mL | 6.25 µg/mL | 6.25 µg/mL | 12.5 µg/mL | 12.5 µg/mL | 6.25 µg/mL | – | CCCCCCCCCC(=O)N[C@@H](CCCCN)CN1CC(=O)N(C23CC4CC(CC(C4)C2)C3)C1=O [Compound 13, N—((S)-1-(3-((3R,5R,7R)-adamantan-1-yl)-2,4-dioxoimidazolidin-1-yl)-6-aminohexan-2-yl) decanamide] | – | – | exhibits decent activity across the panel of bacteria | 125 µg/mL | –
– | – | – | – | – | – | 25 µg/mL | 25 µg/mL | 25 µg/mL | 12.5 µg/mL | 12.5 µg/mL | 25 µg/mL | 12.5 µg/mL | – | CCCCCCCCCCCC(=O)N[C@@H](CCCCN)CN1CC(=O)N(c2ccc(OC)cc2)C1=O [Compound 18, (S)—N-(6-amino-1-(3-(4-methoxyphenyl)-2,4-dioxoimidazolidin-1-yl)hexan-2-yl)dodecan amide] | – | – | – | 200 µg/mL | no apparent antibacterial activity
6.25 µg/mL | – | 6.25 µg/mL | 12.5 µg/mL | 12.5 µg/mL | 6.25 µg/mL | – | – | – | – | – | – | – | 6.25 µg/mL | CCCCCCCCCCCC(=O)N[C@@H](CCCCN)CN1CC(=O)N(C2CCCCC2)C1=O [Compound 10, (S)—N-(6-amino-1-(3-cyclohexyl-2,4-dioxoimidazolidin-1-yl)hexan-2-yl)dodecanamide] | 100 µg/mL | – | – | – | –
